2 molecules from patent US11274132B2, “Combined preparations of PKM2 modulators and HMGB1” (Ruprecht-Karls-Universität Heidelberg, priority 2015, dated 2022) can be followed below.

For series [1], the system named is HCT116 colorectal cancer cells. Description: Crystal violet cytotoxicity assay. Format: cell-based. On the procedure: (§1) Human colon carcinoma cell lines SW480, HCT116, HT29 and Caco2, the human glioblastoma cell line U251MG and the Natural killer cell line NK-92 Cl were purchased from ATCC. Cell lines were regularly tested for contamination by multiplex PCR performed in the Genomics and Proteomics Core Facility 2 (DKFZ, Heidelberg, Germany). For experiments, cells were cultured for no more than 10 passages. Rho zero cells were generated as described earlier 1. (Gdynia, G. et al. Danger signaling protein HMGB1 induces a distinct form of cell death accompanied by formation of giant mitochondria. Cancer research 70, 8558-8568). Cells used in the experiments were cultured in RPMI (#1640, colon carcinomas, NK cells) or DMEM high glucose (#41965-039, glioblastoma cells) medium. Rho zero cells were generated as described earlier (Gdynia, G. et al. ibd.). Briefly, cells were cultured in RPMI medium (10% FCS, 1% P/S) supplemented with 250 ng/ml ethidiumbromide, 50 μg/ml L-pyruvate and 5 mg/ml uridine over a period of 12 weeks. For cytotoxicity measurements, cells were cultured in 96-well plates, treated with recombinant human HMGB1 protein (Sigma-Aldrich®), glycyrrhizinic acid ((3β, 18α)-30-hydroxy-11, 30-dioxoolean-12-en-3-yl 2-O-β-D-glucopyranuronosyl-β-D-glucopyranosiduronic acid)) (Sigma-Aldrich®), 10 μM (non-toxic) or 100 μM (cytotoxic) P-M2tide (aa sequence: GGAVDDDpYAQFANGG; #BML-P239-0001; Enzo Life Sciences) or 100 μM ML-265 (Cayman Chemical), then cell viability was assessed by crystal violet staining (Gillies, R. J., Didier, N. & Denton, M. Determination of cell number in monolayer cultures. Analytical biochemistry 159, 109-113 (1986)). Malic enzyme 1 knock-down was performed with 40 nM siRNA using lipofectamine in 6-well plates followed by treatment with 80 nM HMGB1 for 72 h. Sequences of siRNA were: ME1, 5′-[…]-3′ and scrambled control 5′-CCUGCAGUACUUCAAGCGGtt-3′. PKM2 siRNA was from Santa Cruz. A nonspecific siRNA served as control (Dharmacon, Schwerte, Germany). For overexpression of PKM2 or ME1, cells were transfected with pCMV-PKM2 (Sino Biological Inc., Beijing, China) or pCMV-ME1 (OriGene, Rockville, Md., USA) using Lipofectamine 2000. For cytotoxicity measurements confluent cells were cultured in 96-well plates if not otherwise indicated. Cytotoxic activity of supernatants from stimulated NK cells was assessed in 96-well plates for 3 days with RPMI medium as reference. Recombinant human HMGB1 (10 ng, Sigma) suited as positive control. For mass isotopomer assays, cells were cultured in glucose- or glutamine-free medium supplemented with either uniformly labeled (U)-13C-D-glucose or U-13C-glutamine (Sigma-Aldrich®).

For series [2], the system named is HT29 cells. The series is described as follows: Crystal violet cytotoxicity assay. The note with it: supernatants of anti-Nkp30 stimulated blood NK cells; glycyrrhizin 200 μM, 72 h. Format: cell-based. As to the method: as §1
Series [3] concerns SW480 colorectal cancer cells. The series is described as follows: Crystal violet cytotoxicity assay. Type of series: cell-based. As to the method: as §1
Series [4] has as its target T1, tetrameric PK M2 (Homo sapiens, UniProt P14618).
T1 construct: Activities of glycolytic enzymes measured in cytosolic fractions after treatment with HMGB1; endogenous in cells; host or cells: SW480, HCT116, HT29 cytosolic fractions; homogenates of human colon cancer tissue slices
The series is described as follows: Pyruvate kinase enzymatic assay in cytosolic fractions / homogenates (low PEP). Type of series: cell-based. Conditions: glycyrrhizin 200 μM. As to the method:
Enzymatic activities of respiratory chain complexes, glycolytic proteins and malic enzyme were determined in subcellular fractions as previously described (Kaminski, M. M. et al. T cell activation is driven by an ADP-dependent glucokinase linking enhanced glycolysis with mitochondrial reactive oxygen species generation. Cell reports 2, 1300-1315 (2012).Bruncko, M. et al. Naphthamidine urokinase plasminogen activator inhibitors with improved pharmacokinetic properties. Bioorganic & medicinal chemistry letters 15, 93-98, (2005)) using a computer-tuneable spectrophotometer (Spectramax Plus Microplate Reader, Molecular Devices; Sunny Vale, Calif., USA) operating in the dual wavelength mode; samples were analyzed in temperature-controlled 96-well plates in a final volume of 300 μl. Activity of ME1 was recorded in presence of increasing amounts of malic acid (0.02, 0.05, 0.1, 0.2, 0.5, 1, 2.5 mM). Vmax and Km were calculated using a Hanes-Woolf plot. In the presence of high substrate levels the Km for malic acid was similar in all three tested cell lines (SW480: 0.32 mM, HCT116: 0.30 mM, HT29: 0.31 mM). Vmax (mU/mg protein) values were 3.38 (SW480, 0.5-5.0 mM malic acid), 5.77 (HCT116, 0.5-5.0 mM malic acid) and 3.68 (HT29, 0.5-5.0 mM malic acid) and 1.68 (SW480, 0.02-0.2 mM malic acid), 3.24 (HCT116, 0.02-0.2 mM malic acid) and 1.89 (HT29, 0.02-0.2 mM malic acid). Two isoforms of ME1, mitochondrial (NAD(P)+dependent) ME3 and mitochondrial (NAD+dependent) ME2, had very low or no detectable activities (data not shown).

The subject of series [5] is glucose flux (glycolysis). Description: Glycolysis: conversion of 5-3H-Glucose to 3H2O. Type of series: cell-based, human. The note with it: SW480 cells; co-treatment, glycyrrhizin 200 μM. On the procedure:
Lactate derived from the metabolism of ^13C6-D-glucose or ^13C5-glutamine was determined by comparing the CH3 group intensities of labeled and non-labeled lactate in NMR. Mitochondrial respiration was measured using an Oroboros 1 oxygraph system. Glycolysis was measured by monitoring the conversion of 5-^3H-Glucose to ^3H2O. Incorporation of ^14C into RNA ribose from U-^14C-labelled glucose was taken as glucose utilization in the pentose phosphate shunt. Enzymatic activities were determined in subcellular fractions as previously described^24.

Series [6] deals with colon carcinoma cell lines. Description: MTT assay. Format: cell-based, human. The note with it: all colon carcinoma cell lines used; 0, 24, 48 hours; p<0.05, n=4. As to the method: Assays were performed at three time points (0, 24, 48 hours), and the experiment was repeated four times. At each time point the cell viability was measured using the 3-(4,5-dimethylthiazol-2-yl)-2,5-diphenyl tetrazolium bromide (MTT) assay. The MTT assay was performed as described by Mosmann (Mosmann T. Rapid colorimetric assay for cellular growth and survival: application to proliferation and cytotoxicity assays. J Immunol Methods. 1983;65:55-63.). In brief, at each time point, medium was aspirated from the wells and MTT (1 mg/ml) was gently added to each well. The cells were incubated for 3 hours at 37° C. in 5% CO2, after which the MTT was aspirated and acidified isopropanol (0.04 M HCl) added to solubilize the reduced blue formazan crystals. Aliquots were transferred to a 96-well plate and the absorbance measured at a test filter of 590 nm and a reference filter of 630 nm on a 96-well plate reader.
(Tetrazolium dyes change colour on reduction, which living cells bring about.)

Series [7] concerns colon carcinoma cell lines. The series is described as follows: LDH release assay. Conditions: all colon carcinoma cell lines used; p<0.05, n=4. Type of series: cell-based, human. As to the method: Lactate dehydrogenase activity was assayed spectrophotometrically by measuring the oxidation of NADH with pyruvate substrate at 340 nm as described in Bergmeyer and Berndt E. (1974). Results were analyzed using the following equation: […]
In general terms: Release of lactate dehydrogenase indicates damage to the cell membrane.

[8] abbreviates: glycyrrhizin as inhibitor of HMGB1.
Where [9] appears, read: supernatants of anti-Nkp30 stimulated blood NK cells, glycyrrhizin 200 μM, 72 h.

T1 sequence (P14618 2-531): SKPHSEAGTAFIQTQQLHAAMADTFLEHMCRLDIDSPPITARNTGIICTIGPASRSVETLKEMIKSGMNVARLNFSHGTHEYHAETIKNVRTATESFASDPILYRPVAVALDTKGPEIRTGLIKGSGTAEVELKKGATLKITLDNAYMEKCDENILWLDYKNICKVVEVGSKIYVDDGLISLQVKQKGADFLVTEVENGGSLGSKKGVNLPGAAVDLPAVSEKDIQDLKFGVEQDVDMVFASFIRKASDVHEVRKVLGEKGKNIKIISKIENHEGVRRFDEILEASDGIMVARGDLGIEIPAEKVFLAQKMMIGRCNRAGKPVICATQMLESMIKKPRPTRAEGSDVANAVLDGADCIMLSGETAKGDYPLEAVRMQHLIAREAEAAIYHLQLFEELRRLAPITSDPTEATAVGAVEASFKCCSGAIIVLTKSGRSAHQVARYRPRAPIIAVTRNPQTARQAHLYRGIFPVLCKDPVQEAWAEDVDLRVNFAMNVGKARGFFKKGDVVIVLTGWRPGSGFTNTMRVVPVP

For `CC1(C)[C@@H](O[C@H]2O[C@H](C(=O)O)[C@@H](O)[C@H](O)[C@H]2O[C@@H]2O[C@H](C(=O)O)[C@@H](O)[C@H](O)[C@H]2O)CC[C@]2(C)[C@H]3C(=O)C=C4[C@@H]5C[C@@](C)(C(=O)O)CC[C@]5(C)CC[C@@]4(C)[C@]3(C)CC[C@@H]12` [glycyrrhizin, (3β, 18α)-30-hydroxy-11, 30-dioxoolean-12-en-3-yl 2-O-β-D-glucopyranuronosyl-β-D-glucopyranosiduronic acid, reference compound], the “blocking of HMGB1 cytotoxic effects” value in series [1] (setting [8]) and in series [3] (setting [8]) was “significantly blocked” throughout. For the same molecule, the results for the “effect on NK cell-dependent cytotoxic effect” value in series [1] (setting [9]), in series [2] and in series [3] (setting [9]) were “diminished”, “diminished” and “not changed”, respectively. Moreover, in series [4], the “restoration of tetrameric PK M2 activity inhibited by NK cell supernatant” value was “completely restored”. The “reversal of HMGB1-induced metabolic shift” value in series [5] is on record as “partly reversed”.

B1: GInHMGB1: HMGB1 polypeptide with its B-Box domain tyrosine residues replaced by glutamine (SEQ ID NO:12), expressed in HEK cells (protein)
chain: MGKGDPKKPRGKMSSYAFFVQTCREEHKKKHPDASVNFSEFSKKCSERWKTMSAKEKGKFEDMAKADKARYEREMKTYIPPKGETKKKFKDPNAPKRPPSAFFLFCSEQRPKIKGEHPGLSIGDVAKKLGEMWNNTAADDKQPQEKKAAKLKEKQEKDIAAQRAKGKPDAAKKGVVKAEKSKKKKEEEEDEEDEEDEEEEEDEEDEDEEEDDDDE
modifications: HMGB1 Y -> Q mutein
Take B1: in series [6], the “proliferation (cell viability, MTT) compared to the untreated control” value is “significant decrease in proliferation”. Besides, in series [7], the “release of LDH into the medium compared to the untreated control” value is given as “significant release of LDH”.
